Earlier results on one compound are cited in patent US20150272920A1, “METHOD FOR TREATING OBESITY WITH ANTI-OBESITY FORMULATIONS AND OMEGA 3 FATTY ACIDS FOR THE REDUCTION OF BODY WEIGHT IN CARDIOVASCULAR DISEASE PATIENTS (CVD) AND DIABETICS” (PIVOTAL THERAPEUTICS INC., priority 2014, published 2015).

Structures are written as SMILES.

The target in this data set is CB1R (Homo sapiens, UniProt P21554). The settings on record: in vivo.
Sequence of CB1R (P21554 whole entry): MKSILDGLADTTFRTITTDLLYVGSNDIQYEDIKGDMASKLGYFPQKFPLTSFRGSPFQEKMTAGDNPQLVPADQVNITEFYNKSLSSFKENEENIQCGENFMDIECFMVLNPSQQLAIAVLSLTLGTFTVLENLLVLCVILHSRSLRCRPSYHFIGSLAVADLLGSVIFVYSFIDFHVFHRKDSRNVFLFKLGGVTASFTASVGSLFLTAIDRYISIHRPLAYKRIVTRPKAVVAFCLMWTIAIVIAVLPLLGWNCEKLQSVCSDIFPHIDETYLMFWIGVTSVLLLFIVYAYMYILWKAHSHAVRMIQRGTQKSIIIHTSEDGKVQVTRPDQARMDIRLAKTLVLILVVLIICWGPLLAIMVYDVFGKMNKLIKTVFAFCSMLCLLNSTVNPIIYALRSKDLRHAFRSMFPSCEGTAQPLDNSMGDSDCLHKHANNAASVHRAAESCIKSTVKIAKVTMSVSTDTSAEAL

For the compound `CCNC1(C(N)=O)CCN(c2ncnc3c2nc(-c2ccccc2Cl)n3-c2ccc(Cl)cc2)CC1.Cl` [CP-945,598], the “Reason for failure of phase III clinical trials (adverse reactions)” value was “psychiatric adverse reactions, including severe depression and anxiety”.
